Measurements taken from patent US20130266528A1, “SKIN LIGHTENING COMPOSITION” (priority 2010, published 2013).
Counter-ions that a name gives are not always drawn.

Assays:
HaCaT keratinocyte cells [1] = experiment: Highest concentration above which the active exhibited cytotoxicity; type: cell-based; settings: keratinocyte differentiation experiment of table 2
HaCaT keratinocyte cells [2] = experiment: Keratinocyte differentiation (acridine orange staining); type: cell-based; settings: 24 hrs, average of minimum three replicates
Procedure: Several dicarboxylic acids were tested in an in-vitro assay viz. keratinocyte differentiation which is a well known pathway leading to skin lightening. The assay protocol is given below: 5×10^4 HaCaT keratinocyte cells/well were grown in 24 well plates for 24 hours. Cells were cultured with actives for 24 hrs. Cells were then washed with Phosphated buffer solution (PBS) and stained with 5 μg/ml acridine orange. Cells were immediately viewed using an epi-fluorescent microscope (Olympus BX 50), at 20× magnification, using appropriate excitation and barrier filters, to simultaneously view red and green fluorescence (excitation: 460 nm and emission>515 nm). The entire plate was scanned and the percentage of differentiated keratinocytes (cells with red fluorescence evenly distributed within the cytoplasm) was estimated. Data is represented as % control.

B16 melanocytes = settings: 1 mM active, 24 hrs, average of minimum three replicates
Procedure: B16 melanocytes were cultured in 60 mm^2 petriplates for 2-3 days or until they reached ˜70% confluency and then actives were added and incubated for 24 hrs. Cells were harvested and protein content was estimated using Bradford method. The cells were then solubilized in 0.1N NaOH and melanin was estimated. Data are then calculated as mg melanin/mg protein and represented as % control. Decreased numbers indicate inhibition of melanin synthesis by the actives.

Row | Compound | Conc. of active = highest possible concentration above which the active exhibited cytotoxicity (HaCaT keratinocyte cells [1]) [µM] | % Keratinocyte differentiation, average (HaCaT keratinocyte cells [2]; 10 mM active) [% control] | other results
1 | O=C(O)/C=C/C(=O)O [disodium fumarate] | 10000 | 183 | 
2 | O=C(O)CCCCCCCCC(=O)O [sebacic acid] | 5000 |  | % Keratinocyte differentiation, average (HaCaT keratinocyte cells [2]; 5 mM active): 130 % control
3 | CCCC(=O)[O-].[Na+] [sodium butyrate] | 1000 |  | % Keratinocyte differentiation, average (HaCaT keratinocyte cells [2]; 1 mM active): 174 % control; Melanin (mg melanin/mg protein), average (B16 melanocytes): 92 % control
4 | O=C(O)CCCCCCCC(=O)O [azeleic acid] | 5500 |  | % Keratinocyte differentiation, average (HaCaT keratinocyte cells [2]; 5.5 mM active): 175 % control
5 | O=C([O-])C(O)C(O)C(=O)[O-].[Na+].[Na+] (stereo not shown) [sodium tartarate] | 10000 | 165 | 
6 | O=C([O-])CCC(=O)[O-].[Na+].[Na+] [sodium succinate] | 6000 |  | % Keratinocyte differentiation, average (HaCaT keratinocyte cells [2]; 6 mM active): 155 % control
